Data: patent publication US4055640A, “Compositions and methods for controlling the growth of bacteria, fungi and algae using certain derivatives of N-(2,2-dichlorovinyl)salicylamides” (Nippon Kayaku Co., Ltd., priority 1975, dated 1977)
≈ marks a conversion by molar mass, not a printed value.

Assays:
[1] = test system: Rhizoctonia solani (damping-off of cucumber); assay: Exterminating test on damping-off of cucumber (Experimental Example 3); assay type: in vivo; details: Rhizoctonia solani, soil, 240 h, read-out: Percentage of healthy seedlings
How it was run: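 Percentage of healthy seedlings was scored 10 days post inoculation, with PCNB 50% wettable powder run alongside as reference. Each pot held 10 Azumamidori cucumber seeds in field soil carrying 5 g Rhizoctonia solani. Soil drench: 50 ml water suspension of 80% wettable powder; greenhouse.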

[2] = test system: rice plant (variety: Nihonbare); assay: Phytotoxicity on rice plant (Experimental Example 1); assay type: in vivo; details: 0.25g/box a.i.
Method: Exterminating test on seedling blight of rice plant Nursery boxes (60 × 30 × 3 cm) were filled with soil which were contaminated with pathogen (Fusarium sp. and Rhizoctonia sp.) The dust in which the present compound was contained in a ratio of 5% by weight was added in the box in a ratio of 5 grams per box and mixed well with soil. Thereafter, seeds of rice plant (variety: Nihonbare) were sowed in drills at a rate of 0.3 liter per box and grown up in a lighting chamber at 17° C. After 7 days from the sowing, the boxes were carried out in the field. Furthermore, 10 days thereafter the observations were made. Four percent (4%) dust of 3-hydroxy-5-methyl isoxazol (hereinafter referred to as hydroxyisoxazol) on the market was used as a control and tested by the same method. The test results are shown in Table 2 with a "percentage of healthy seedlings". The percentage of healthy seedlings was calculated as follows: […]

[3] = test system: Fusarium wilt of cucumber; assay: Exterminating test on Fusarium wilt of cucumber (Experimental Example 4); assay type: in vivo, Fusarium oxysporum f, cucumerinum; details: Fusarium, soil, 336 h, read-out: Percentage of healthy seedlings
How it was run: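 Pots of steam-sterilized soil mixed with 20 g infested soil, sown with 18 cucumber seeds (Tokiwazibai), drenched with 100 ml aqueous suspension of 80% wettable powder. Benlate 50% wettable powder run as control. Disease scored two weeks after planting as percentage of healthy seedlings.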

[4] = test system: Escherichia coli; assay: Minimum inhibitory amount, dilution methods (Example 24); assay type: cell-based; details: Escherichia coli, read-out: Minimum inhibitory amount
Excerpt: (§1) Bactericidal activity and fungicidal activity of the active compounds of the present invention were examined by potato-dextrose agar dilution method, or [2] glucose bouillon medium dilution method. The results are shown in Table 10 below as the minimum inhibitory concentration (the minimum concentration of active compound found to produce 100% control of the test bacteria and fungi).

[5] = test system: Aspergillus niger; assay: as above; assay type: cell-based; details: Aspergillus niger, read-out: Minimum inhibitory amount
Excerpt: as §1

[6] = test system: Penicillium Citrinum; assay: as above; assay type: cell-based; details: Penicillium citrinum, read-out: Minimum inhibitory amount
Excerpt: as §1

[7] = test system: Cladosporium harbarum; assay: as above; assay type: cell-based; details: Cladosporium, read-out: Minimum inhibitory amount
Excerpt: as §1

[8] = test system: Bacillus subtilis; assay: as above; assay type: cell-based; details: Bacillus subtilis, read-out: Minimum inhibitory amount
Excerpt: as §1

[9] = test system: Staphylococcus aureus; assay: as above; assay type: cell-based; details: Staphylococcus aureus, read-out: Minimum inhibitory amount
Excerpt: as §1

[10] = test system: seedling blight of rice plant (pathogen Fusarium sp. and Rhizoctonia sp.); assay: Exterminating test on seedling blight of rice plant (Experimental Example 1); assay type: in vivo; details: soil, 408 h, read-out: Percentage of healthy seedlings
How it was run: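 Pathogen-contaminated nursery soil (Fusarium sp., Rhizoctonia sp.) mixed with 5% compound dust at 5 g per box; Nihonbare rice sown, grown 7 days at 17° C in lighting chamber, then moved to field. Assessed 10 days later as percentage of healthy seedlings; commercial 4% hydroxyisoxazol dust run as control.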

[11] = test system: cucumber (variety; Tokiwazibai); assay: Phytotoxicity on cucumber (Experimental Example 4); assay type: in vivo; details: 500 ppm
Method: Exterminating test on Fusarium wilt of cucumber Twenty (20) grams of infected soil was added uniformly into each pot which was filled with steam sterilized field soil, then 18 seeds of cucumber (variety; Tokiwazibai) were sowed in each pot. Eighty percent (80%) wettable powder of the present invention was diluted with water to obtain a suspension, and each pot was drenched with the suspension in an amount of 100 ml. Fifty percent (50%) wettable powder of methyl-1-(butylcarbamoyl) 2-benzimidazol carbamate (hereinafter referred to as Benlate) on the market was used as a control and tested by the same method. After two weeks of planting, degrees attacked by the pathogen was observed and a "percentage of healthy seedlings" was calculated as follows: [formula]

[12] = test system: cucumber (variety: Azumamidori); assay: Phytotoxicity on cucumber (Experimental Example 3); assay type: in vivo; details: 1,000 ppm

CNC(=O)Oc1ccccc1C(=O)NC=C(Cl)Cl [Compound No. 19, O-(N'-methylcarbamoyl)-N-(2,2-dichlorovinyl) salicylamide]
pest or weed control at 1000 ppm [1]: 65% | Phytotoxicity [2]: Nil | pest or weed control at 500 ppm [3]: 38% | MIC [4]: 60 µg/mL (≈ 208 µM) | MIC [5]: 20 µg/mL (≈ 69.2 µM) | MIC [6]: 10 µg/mL (≈ 34.6 µM) | MIC [7]: 5 µg/mL (≈ 17.3 µM) | MIC [8]: 10 µg/mL (≈ 34.6 µM) | MIC [9]: 10 µg/mL (≈ 34.6 µM) | Percentage of healthy seedlings at 0.25 g/box [10]: 64.7% | Phytotoxicity [11]: Nil | Phytotoxicity [12]: Nil
